Residual activity data for two compounds are collected here from ChEMBL document CHEMBL4507319 (2021).

Conditions in all cases: Compound concentration 1000.0 nM
Assay [1] has as its target Megakaryocyte-associated tyrosine-protein kinase (Homo sapiens) (UniProt P42679).
The target of assay [2] is Mitogen-activated protein kinase kinase kinase 13 (Homo sapiens) (UniProt O43283).
The target of assay [3] is Dual specificity protein kinase CLK3 (Homo sapiens) (UniProt P49761).
Assay [4] has as its target Phosphatidylinositol 4-kinase beta (Homo sapiens) (UniProt Q9UBF8).
For assay [5], the target named is Myosin light chain kinase family member 4 (Homo sapiens) (UniProt Q86YV6).
Assay [6] deals with Misshapen-like kinase 1 (Homo sapiens) (UniProt Q8N4C8).
The test system of assay [7] is Leucine-rich repeat serine/threonine-protein kinase 2 (Homo sapiens), Q5S007 [G2019S].
The target of assay [8] is Serine/threonine-protein kinase B-raf (Homo sapiens) (UniProt P15056).
Assay [9] concerns the target Fibroblast growth factor receptor 1 (Homo sapiens) (UniProt P11362).
Assay [10] concerns the target Serine/threonine-protein kinase WNK2 (Homo sapiens) (UniProt Q9Y3S1).
Assay [11] has as its target T1, Discoidin domain-containing receptor 2 (Homo sapiens) (UniProt Q16832).
T1 sequence (whole entry): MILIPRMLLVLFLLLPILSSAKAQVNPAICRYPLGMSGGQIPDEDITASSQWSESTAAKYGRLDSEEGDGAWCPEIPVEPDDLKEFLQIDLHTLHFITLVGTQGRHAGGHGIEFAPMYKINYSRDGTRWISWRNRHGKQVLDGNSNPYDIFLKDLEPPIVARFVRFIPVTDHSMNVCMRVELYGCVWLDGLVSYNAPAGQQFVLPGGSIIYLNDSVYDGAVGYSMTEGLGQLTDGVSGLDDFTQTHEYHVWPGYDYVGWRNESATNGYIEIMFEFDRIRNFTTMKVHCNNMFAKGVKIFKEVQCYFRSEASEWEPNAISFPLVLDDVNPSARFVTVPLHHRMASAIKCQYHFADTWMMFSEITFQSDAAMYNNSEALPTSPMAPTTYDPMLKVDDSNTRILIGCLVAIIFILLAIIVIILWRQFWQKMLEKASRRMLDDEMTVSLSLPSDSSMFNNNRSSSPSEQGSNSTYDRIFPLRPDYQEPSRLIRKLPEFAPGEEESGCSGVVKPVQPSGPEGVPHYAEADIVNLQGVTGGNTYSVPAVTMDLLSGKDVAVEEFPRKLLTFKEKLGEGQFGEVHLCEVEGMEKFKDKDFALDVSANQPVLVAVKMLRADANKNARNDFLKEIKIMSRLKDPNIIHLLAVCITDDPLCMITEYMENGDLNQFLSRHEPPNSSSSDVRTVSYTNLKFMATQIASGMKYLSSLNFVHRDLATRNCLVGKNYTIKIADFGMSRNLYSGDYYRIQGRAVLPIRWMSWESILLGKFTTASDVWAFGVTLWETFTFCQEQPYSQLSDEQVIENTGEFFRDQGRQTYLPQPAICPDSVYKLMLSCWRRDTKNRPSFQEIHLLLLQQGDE

Assay [12] concerns the target Mitogen-activated protein kinase kinase kinase 10 (Homo sapiens) (UniProt Q02779).
Assay [13] deals with Mitogen-activated protein kinase 1 (Homo sapiens) (UniProt P28482).
In assay [14] the target is Serine/threonine-protein kinase WNK3 (Homo sapiens) (UniProt Q9BYP7).
Assay [15] concerns the target Microtubule-associated serine/threonine-protein kinase 1 (Homo sapiens) (UniProt Q9Y2H9).
Assay [16] has as its target T2, Dual specificity mitogen-activated protein kinase kinase 6 (Homo sapiens) (UniProt P52564).
T2 sequence (whole entry): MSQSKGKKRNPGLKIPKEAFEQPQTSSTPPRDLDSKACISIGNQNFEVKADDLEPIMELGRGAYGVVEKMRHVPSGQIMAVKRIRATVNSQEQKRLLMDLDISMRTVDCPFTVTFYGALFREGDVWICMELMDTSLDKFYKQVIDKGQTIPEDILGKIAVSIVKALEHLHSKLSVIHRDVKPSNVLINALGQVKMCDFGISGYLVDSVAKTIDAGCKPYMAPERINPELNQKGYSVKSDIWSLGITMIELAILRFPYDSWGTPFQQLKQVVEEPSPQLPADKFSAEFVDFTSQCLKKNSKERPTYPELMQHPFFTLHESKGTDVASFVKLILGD

Assay [17] concerns the target Phosphatidylinositol 4-phosphate 5-kinase type-1 gamma (Homo sapiens) (UniProt O60331).
The test system of assay [18] is Phosphatidylinositol 4,5-bisphosphate 3-kinase catalytic subunit alpha isoform (Homo sapiens), P42336 [E545K].
Assay [19] has as its target T3, cGMP-dependent protein kinase 2 (Homo sapiens) (UniProt Q13237).
T3 sequence (whole entry): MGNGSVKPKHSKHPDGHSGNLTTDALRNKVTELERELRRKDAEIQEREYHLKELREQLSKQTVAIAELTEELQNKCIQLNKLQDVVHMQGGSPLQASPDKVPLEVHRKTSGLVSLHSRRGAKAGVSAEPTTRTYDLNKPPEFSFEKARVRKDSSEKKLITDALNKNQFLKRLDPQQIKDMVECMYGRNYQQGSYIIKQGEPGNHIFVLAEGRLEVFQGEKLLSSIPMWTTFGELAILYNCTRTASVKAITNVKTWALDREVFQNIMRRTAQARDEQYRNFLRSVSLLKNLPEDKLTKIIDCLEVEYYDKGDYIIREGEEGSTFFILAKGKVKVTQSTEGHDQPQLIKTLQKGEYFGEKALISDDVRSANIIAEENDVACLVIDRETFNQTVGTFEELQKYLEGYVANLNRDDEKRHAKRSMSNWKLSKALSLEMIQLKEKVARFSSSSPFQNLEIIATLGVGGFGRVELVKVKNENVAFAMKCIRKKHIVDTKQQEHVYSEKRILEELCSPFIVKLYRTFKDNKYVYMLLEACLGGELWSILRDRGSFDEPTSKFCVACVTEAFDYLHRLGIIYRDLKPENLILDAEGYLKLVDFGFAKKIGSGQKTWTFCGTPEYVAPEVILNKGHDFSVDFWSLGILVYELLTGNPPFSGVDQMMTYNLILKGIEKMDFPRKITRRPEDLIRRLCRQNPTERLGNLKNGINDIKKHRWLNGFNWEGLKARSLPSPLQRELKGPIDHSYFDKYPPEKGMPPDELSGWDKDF

Molecules are shown by their SMILES.

Sequence of Megakaryocyte-associated tyrosine-protein kinase (Homo sapiens) (P42679 whole entry): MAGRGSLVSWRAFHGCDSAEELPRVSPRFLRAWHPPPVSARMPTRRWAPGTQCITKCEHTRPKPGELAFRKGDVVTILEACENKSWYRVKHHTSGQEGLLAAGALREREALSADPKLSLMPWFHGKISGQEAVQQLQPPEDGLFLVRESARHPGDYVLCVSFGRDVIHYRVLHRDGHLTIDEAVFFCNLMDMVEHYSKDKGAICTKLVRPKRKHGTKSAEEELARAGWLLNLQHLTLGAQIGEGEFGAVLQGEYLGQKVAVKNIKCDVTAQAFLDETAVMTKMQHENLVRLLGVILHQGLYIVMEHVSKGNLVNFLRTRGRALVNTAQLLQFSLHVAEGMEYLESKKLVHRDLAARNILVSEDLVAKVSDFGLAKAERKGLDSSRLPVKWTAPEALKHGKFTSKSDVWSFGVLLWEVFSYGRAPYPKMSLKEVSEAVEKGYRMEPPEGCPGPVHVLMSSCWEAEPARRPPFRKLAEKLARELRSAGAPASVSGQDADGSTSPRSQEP
Sequence of Phosphatidylinositol 4-kinase beta (Homo sapiens) (Q9UBF8 2-816 limits assumed): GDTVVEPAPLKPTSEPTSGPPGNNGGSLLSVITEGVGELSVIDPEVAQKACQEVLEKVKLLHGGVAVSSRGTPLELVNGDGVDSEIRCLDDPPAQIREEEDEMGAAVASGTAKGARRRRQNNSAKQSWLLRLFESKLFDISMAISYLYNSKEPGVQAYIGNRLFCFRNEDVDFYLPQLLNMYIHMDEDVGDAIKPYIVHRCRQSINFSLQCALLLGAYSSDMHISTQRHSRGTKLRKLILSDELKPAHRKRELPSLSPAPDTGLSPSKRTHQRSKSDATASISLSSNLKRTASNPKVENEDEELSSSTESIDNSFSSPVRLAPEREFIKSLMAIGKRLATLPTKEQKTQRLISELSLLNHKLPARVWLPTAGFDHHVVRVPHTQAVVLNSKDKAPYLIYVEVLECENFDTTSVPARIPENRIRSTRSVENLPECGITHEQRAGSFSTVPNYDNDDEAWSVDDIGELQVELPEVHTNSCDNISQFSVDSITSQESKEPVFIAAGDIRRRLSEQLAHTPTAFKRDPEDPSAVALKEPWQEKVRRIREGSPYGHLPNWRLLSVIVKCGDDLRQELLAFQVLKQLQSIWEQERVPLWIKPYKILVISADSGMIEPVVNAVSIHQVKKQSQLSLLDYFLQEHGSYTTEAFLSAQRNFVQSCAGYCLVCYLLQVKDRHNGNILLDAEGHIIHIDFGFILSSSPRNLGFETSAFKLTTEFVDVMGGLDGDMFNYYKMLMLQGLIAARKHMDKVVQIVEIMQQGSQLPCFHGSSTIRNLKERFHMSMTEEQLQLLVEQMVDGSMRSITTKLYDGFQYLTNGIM
Sequence of Microtubule-associated serine/threonine-protein kinase 1 (Homo sapiens) (Q9Y2H9 whole entry, looked up): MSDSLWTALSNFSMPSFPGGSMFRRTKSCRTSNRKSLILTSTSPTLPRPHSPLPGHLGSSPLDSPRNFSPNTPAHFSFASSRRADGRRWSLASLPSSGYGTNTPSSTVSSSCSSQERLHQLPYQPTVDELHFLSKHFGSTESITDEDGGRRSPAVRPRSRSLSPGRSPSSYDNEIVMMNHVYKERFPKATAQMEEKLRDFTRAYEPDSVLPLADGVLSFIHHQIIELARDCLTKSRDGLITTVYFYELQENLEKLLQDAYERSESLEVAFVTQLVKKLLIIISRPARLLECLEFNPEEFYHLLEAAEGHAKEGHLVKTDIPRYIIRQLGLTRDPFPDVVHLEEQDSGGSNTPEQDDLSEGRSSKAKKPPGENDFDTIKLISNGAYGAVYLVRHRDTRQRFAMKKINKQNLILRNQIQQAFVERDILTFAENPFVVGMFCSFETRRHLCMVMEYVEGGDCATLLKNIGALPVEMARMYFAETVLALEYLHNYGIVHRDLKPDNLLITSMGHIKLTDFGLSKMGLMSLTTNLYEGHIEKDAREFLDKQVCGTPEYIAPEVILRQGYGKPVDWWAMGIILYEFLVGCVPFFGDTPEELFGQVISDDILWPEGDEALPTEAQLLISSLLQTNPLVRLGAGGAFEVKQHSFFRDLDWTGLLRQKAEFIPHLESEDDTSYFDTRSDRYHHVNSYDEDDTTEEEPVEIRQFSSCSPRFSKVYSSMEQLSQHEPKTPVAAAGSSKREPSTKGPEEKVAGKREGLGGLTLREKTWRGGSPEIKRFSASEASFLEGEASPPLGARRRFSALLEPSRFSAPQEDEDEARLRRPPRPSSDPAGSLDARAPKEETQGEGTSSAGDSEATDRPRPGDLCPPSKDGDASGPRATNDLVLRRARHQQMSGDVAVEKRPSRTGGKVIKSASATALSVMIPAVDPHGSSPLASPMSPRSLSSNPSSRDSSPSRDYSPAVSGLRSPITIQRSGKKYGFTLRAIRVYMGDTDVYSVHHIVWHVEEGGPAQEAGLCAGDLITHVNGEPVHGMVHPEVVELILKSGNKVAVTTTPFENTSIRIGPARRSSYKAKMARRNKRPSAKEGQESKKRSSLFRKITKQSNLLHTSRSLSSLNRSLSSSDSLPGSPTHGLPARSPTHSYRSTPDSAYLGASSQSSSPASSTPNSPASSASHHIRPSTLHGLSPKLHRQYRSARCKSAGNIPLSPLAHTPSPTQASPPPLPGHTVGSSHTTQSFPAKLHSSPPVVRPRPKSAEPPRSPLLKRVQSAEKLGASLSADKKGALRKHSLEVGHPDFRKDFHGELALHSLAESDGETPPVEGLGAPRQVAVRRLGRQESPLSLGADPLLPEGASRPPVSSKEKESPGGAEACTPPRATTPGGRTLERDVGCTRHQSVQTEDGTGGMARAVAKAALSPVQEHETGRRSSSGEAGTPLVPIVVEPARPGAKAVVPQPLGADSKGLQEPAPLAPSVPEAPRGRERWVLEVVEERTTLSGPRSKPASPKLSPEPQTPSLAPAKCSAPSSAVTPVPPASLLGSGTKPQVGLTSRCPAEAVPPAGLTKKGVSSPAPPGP
Sequence of Serine/threonine-protein kinase WNK3 (Homo sapiens) (Q9BYP7 whole entry): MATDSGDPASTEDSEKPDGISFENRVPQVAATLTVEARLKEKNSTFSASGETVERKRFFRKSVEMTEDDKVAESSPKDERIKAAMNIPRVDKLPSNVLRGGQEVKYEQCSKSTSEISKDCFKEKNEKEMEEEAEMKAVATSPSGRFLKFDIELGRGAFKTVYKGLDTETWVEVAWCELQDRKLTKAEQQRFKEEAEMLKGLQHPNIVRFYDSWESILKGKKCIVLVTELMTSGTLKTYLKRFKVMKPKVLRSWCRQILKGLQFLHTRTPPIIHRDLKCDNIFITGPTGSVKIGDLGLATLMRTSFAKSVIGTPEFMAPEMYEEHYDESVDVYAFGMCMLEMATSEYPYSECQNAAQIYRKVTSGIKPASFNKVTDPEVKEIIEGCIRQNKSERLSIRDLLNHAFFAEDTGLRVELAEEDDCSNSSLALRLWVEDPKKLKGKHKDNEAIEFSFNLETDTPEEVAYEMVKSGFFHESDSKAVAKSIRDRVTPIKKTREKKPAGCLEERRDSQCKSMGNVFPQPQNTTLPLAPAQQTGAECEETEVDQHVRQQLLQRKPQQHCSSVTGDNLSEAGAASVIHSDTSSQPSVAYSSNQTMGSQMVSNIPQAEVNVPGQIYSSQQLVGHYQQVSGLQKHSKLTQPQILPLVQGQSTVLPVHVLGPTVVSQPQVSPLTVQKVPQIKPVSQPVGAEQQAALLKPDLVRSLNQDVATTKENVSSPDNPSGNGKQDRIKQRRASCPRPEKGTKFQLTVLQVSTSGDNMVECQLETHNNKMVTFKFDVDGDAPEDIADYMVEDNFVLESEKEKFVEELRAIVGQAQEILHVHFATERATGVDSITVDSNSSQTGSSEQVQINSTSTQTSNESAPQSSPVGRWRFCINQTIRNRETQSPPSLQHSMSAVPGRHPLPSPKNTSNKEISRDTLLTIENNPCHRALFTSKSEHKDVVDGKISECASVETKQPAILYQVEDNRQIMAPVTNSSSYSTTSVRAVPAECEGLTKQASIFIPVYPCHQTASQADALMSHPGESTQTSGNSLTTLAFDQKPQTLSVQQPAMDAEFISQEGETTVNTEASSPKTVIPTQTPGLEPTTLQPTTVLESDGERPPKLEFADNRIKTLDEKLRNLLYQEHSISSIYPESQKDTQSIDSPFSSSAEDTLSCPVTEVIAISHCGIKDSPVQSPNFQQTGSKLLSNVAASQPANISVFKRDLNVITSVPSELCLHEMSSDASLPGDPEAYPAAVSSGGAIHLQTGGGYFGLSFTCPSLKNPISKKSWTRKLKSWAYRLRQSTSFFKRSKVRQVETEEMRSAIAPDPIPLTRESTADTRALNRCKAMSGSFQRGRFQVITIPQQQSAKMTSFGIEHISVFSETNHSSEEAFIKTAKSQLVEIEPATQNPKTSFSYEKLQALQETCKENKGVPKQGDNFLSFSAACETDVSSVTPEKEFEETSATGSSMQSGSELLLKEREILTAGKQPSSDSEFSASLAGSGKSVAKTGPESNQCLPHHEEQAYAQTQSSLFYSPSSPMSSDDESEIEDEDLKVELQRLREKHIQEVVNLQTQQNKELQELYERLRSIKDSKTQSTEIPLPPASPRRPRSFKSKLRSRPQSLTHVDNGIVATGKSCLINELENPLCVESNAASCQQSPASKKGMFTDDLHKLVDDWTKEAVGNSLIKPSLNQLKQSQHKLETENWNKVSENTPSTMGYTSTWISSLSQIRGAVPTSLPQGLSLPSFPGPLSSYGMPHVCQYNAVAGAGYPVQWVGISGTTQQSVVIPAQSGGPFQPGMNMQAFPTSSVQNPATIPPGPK
Sequence of Mitogen-activated protein kinase 1 (Homo sapiens) (P28482 whole entry): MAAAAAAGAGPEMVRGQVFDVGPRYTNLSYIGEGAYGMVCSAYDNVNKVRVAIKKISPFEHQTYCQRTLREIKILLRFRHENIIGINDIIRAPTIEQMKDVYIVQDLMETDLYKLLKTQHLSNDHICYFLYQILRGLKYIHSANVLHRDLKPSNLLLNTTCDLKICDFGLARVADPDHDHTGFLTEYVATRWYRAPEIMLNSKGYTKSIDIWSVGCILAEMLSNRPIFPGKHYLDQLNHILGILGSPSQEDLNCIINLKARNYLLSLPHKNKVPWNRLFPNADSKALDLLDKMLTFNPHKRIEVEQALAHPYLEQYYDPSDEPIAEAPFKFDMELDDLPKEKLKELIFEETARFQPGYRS

With `CCc1ccccc1C(=O)Nc1n[nH]c2c(C)c(F)c(C3C(C#N)=C(C)N(C)C(C)=C3C#N)cc12` [BAY-3827], the residual activity was 100% in [1]; 100% in assay [2]; 100% in assay [3]; 100% in assay [4]; 100% in assay [5]; 99% in assay [6]. Further, the residual activity was 100% in assay [7]; 78% in assay [8]; 97% in [9]; 100% in assay [10]; 100% in [11]; 100% in assay [12]. Besides, the residual activity in [13] was 86%; in assay [14] it was 90%; in assay [15], 100%; in assay [16], 98%; in assay [17], 56%; in assay [18], 100%. Further, the residual activity in assay [19] was 100%.
As to `CC1=C(C#N)C(c2ccc3c(c2)c(NC(=O)c2ccccc2C)nn3C)C(C#N)=C(C)N1` [BAY-974], the residual activity in [1] is 79%; in assay [2], 99%; in [3] it was 94%; in assay [4], 30%; in assay [5], 100%; in [6], 96%. Also, the residual activity in [7] was 100%; in [8], 47%; in [9], 97%; in [10], 75%; in assay [11], 86%; in assay [12], 69%. Besides, the residual activity in assay [13] was 80%; in assay [14], 82%; in assay [15] it was 92%; in assay [16], 95%; in assay [17], 91%; in assay [18] it was 90%. The residual activity in assay [19] is 72%.
